Tests used:
[1] = In vitro cytotoxicity of CLR 1899; assay type: cell-based; conditions: human, NHDF (normal dermal fibroblasts); read-out: Minimum % viability
Experimental: CLR 1899 was administered to cell lines A375 (human malignant melanoma), A549 (human lung adenocarcinoma), HCT 116 (human colon cancer), and NHDF (normal human dermal fibroblasts).

[2] = In vivo tolerability, body weight changes; set-up: species or system C57BL/6 mice; conditions: intravenous, repeat dosing, 0.5, 1.0 or 2.0 mg/kg
Experimental: To determine whether CLR 1899 is tolerated in vivo, the compound was administered intravenously to healthy C57BL/6 mice at dose levels of 0.5 mg/kg, 1.0 mg/kg, or 2.0 mg/kg, and body weight changes were observed (FIG. 12). […] The in vivo efficacy of CLR 1899 was studied in MCF-7 xenograft model (FIG. 13, 10 mice per dose group). Reduction in tumor volume was recorded.

**Q.** For `COC(=O)[C@H]1[C@@H](O)[C@@]2(O)c3c(OC)cc(OCCCCNC(=O)CNC(=O)CNC(=O)CNC(=O)c4ccc(CCCCCCCCCCCCCCCCCCOP(=O)([O-])OCC[N+](C)(C)C)cc4)cc3O[C@@]2(c2ccc(OC)cc2)[C@@H]1c1ccccc1` [CLR 1899], which viability [1] is on record?
**A.** 41.7%

**Q.** And the “toxicity or adverse events as measured by changes in weight” value [2]?
**A.** no toxicity or adverse events

From patent publication US12496346B2, “Phospholipid-flavagline conjugates and methods of using the same for targeted cancer therapy” (Cellectar Biosciences, Inc., priority 2019, dated 2025)
